From ChEMBL document CHEMBL1124500, “New cyclic peptides with cytotoxic activity from the ascidian Lissoclinum patella” (J Med Chem, 1989)
≈ marks a conversion by molar mass, not a printed value.

Key:
Assay type in all cases: functional, cell-based
L1210 [1] = assay: Concentration required to cause 50% inhibition against murine leukemia L1210 cell line; details: Mus musculus
MRC5CV1 [2] = assay: Cytotoxicity of compound was evaluated by incorporation of [methyl-3H]thymidine into MRC5CV1, a control fibroblast cell line, for 1 hr exposure; details: Homo sapiens, MRC5CV1, 1 h
T-24 [3] = assay: Cytotoxicity of compound was evaluated by incorporation of [methyl-3H]thymidine into T24, a bladder carcinoma cell line, for 1 hr exposure; details: Homo sapiens, T-24, 1 h
T-24 [4] = assay: Cytotoxicity of compound was evaluated by incorporation of [methyl-3H]thymidine into T24, a bladder carcinoma cell line, continuous exposure; details: Homo sapiens
MRC5CV1 [5] = assay: Cytotoxicity of compound was evaluated by incorporation of [methyl-3H]thymidine into MRC5CV1, a control fibroblast cell line, continuous exposure; details: Homo sapiens
CCRF-CEM = assay: Concentration required to cause 50% inhibition against human CEM cell lines
L1210 [6] = assay: Concentration required to cause 50% inhibition against murine leukemia L1210 cell line; 2-4 ug/mL; details: Mus musculus

SMILES | IC50 (L1210 [1]) [µg/mL] | IC50 (L1210 [6]) [µg/mL] | also measured
CC(C)C[C@H]1NC(=O)[C@H]2N=C(O[C@@H]2C)[C@H]2CSSC[C@@H](NC(=O)c3csc1n3)C1=N[C@H](C(=O)N[C@H](CC(C)C)c3nc(cs3)C(=O)N2)[C@@H](C)O1 [ULITHIACYCLAMIDE] | 0.35 (≈ 0.459 µM) |  | IC50 (MRC5CV1 [2]): 0.22 µg/mL (≈ 0.288 µM); IC50 (T-24 [3]): 0.15 µg/mL (≈ 0.197 µM); IC50 (T-24 [4]): 0.1 µg/mL (≈ 0.131 µM); IC50 (MRC5CV1 [5]): 0.04 µg/mL (≈ 0.0524 µM); IC50 (CCRF-CEM): 0.01 µg/mL (≈ 0.0131 µM)
CC[C@@H](C)[C@H]1NC(=O)[C@H]2N=C(O[C@@H]2C)[C@@H]2CCCN2C(=O)[C@H](Cc2ccccc2)NC(=O)c2csc(n2)[C@@H](C)NC(=O)C2CSC1=N2 [LISSOCLINAMIDE 2] | > 10 |  | 
CC[C@@H](C)[C@H]1NC(=O)c2csc(n2)[C@H](C(C)C)NC(=O)[C@H]2N=C(O[C@@H]2C)[C@@H]2CCCN2C(=O)[C@H](Cc2ccccc2)NC(=O)c2csc1n2 [LISSOCLINAMIDE 1] | > 10 |  | 
CC[C@H](C)[C@@H]1NC(=O)c2csc(n2)[C@@H](C)NC(=O)[C@H]2N=C(O[C@@H]2C)[C@H](CC(C)C)NC(=O)c2csc(n2)[C@@H](Cc2ccccc2)NC(=O)[C@H]2N=C1O[C@@H]2C [PATELLAMIDE B] |  | 2 (≈ 2.57 µM) | 
CC[C@H](C)[C@@H]1NC(=O)c2csc(n2)[C@@H](C)NC(=O)[C@H]2N=C(O[C@@H]2C)[C@H](C(C)C)NC(=O)c2csc(n2)[C@@H](Cc2ccccc2)NC(=O)[C@H]2N=C1O[C@@H]2C [PATELLAMIDE C] |  | 2 (≈ 2.62 µM) | 
CC[C@H](C)[C@@H]1NC(=O)c2csc(n2)[C@@H](C(C)C)NC(=O)[C@H]2N=C(O[C@@H]2C)[C@H]([C@@H](C)CC)NC(=O)c2csc(n2)[C@@H](C(C)C)NC(=O)[C@@H]2COC1=N2 [PATELLAMIDE A] |  | 2 (≈ 2.69 µM) | 

Continued, in another order:

IC50 (L1210 [1]) [µg/mL] | SMILES | IC50 (L1210 [6]) [µg/mL] | also measured
> 10 | CC[C@@H](C)[C@H]1NC(=O)[C@H]2N=C(O[C@@H]2C)[C@@H]2CCCN2C(=O)[C@H](Cc2ccccc2)NC(=O)c2csc(n2)[C@H](C)NC(=O)C2CSC1=N2 [LISSOCLINAMIDE 3] |  | 
0.8 (≈ 1.08 µM) | CC(C)[C@@H]1NC(=O)[C@H]2N=C(O[C@@H]2C)[C@@H]2CCCN2C(=O)[C@H](Cc2ccccc2)NC(=O)c2csc(n2)[C@H](Cc2ccccc2)NC(=O)[C@H]2CSC1=N2 |  | 
